Source: patent publication US20250325690A1, “ANTIBODY-DRUG CONJUGATE WITH TWO TYPES OF DRUG-LINKER CONJUGATES ON SINGLE ANTIBODY” (priority 2022, published 2025)
Entries after “also recorded” stand apart in the source; their conditions may differ. Like-named read-outs stand apart in the source and are kept apart here.

Assays:
DDX5 = molecular target: T1, DDX5 (Homo sapiens, UniProt P17844); assay type: cell-based; conditions: FaDu and A549, 0, 10, 100 nM, 24 hours
T1 construct: endogenous in cells; host or cells: FaDu and A549 cell lines
T1 sequence (P17844 whole entry): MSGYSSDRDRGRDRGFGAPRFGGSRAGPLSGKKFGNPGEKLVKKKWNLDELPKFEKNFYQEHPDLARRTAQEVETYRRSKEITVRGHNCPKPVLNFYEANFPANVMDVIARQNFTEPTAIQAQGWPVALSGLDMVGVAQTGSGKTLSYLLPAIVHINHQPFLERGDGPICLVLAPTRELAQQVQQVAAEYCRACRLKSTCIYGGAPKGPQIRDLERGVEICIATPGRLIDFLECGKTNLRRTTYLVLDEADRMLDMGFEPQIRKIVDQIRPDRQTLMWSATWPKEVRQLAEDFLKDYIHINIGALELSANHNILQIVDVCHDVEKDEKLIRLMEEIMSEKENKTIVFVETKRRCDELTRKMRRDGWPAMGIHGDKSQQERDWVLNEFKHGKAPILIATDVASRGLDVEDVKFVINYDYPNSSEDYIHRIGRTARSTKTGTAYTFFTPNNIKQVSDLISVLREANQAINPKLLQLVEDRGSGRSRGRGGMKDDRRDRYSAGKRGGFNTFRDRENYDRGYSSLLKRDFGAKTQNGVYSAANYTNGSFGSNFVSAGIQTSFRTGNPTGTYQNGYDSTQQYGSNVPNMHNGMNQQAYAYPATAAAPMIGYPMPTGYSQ

cancer cells [1] = test: Cytotoxicity in cancer cell lines; assay type: cell-based; conditions: 140 cell lines from various cancer types, most cancer cells
GLP-toxicity tests = assay type: in vivo; conditions: mice and beagle dogs
[2] = tested on: cancer cell line xenograft models; test: Cancer cell line xenograft models, FL118 versus SN-38; assay type: in vivo; conditions: same amount as SN-38
ABCG2 transporter = molecular target: T2, ABCG2 transporter (Homo sapiens, UniProt Q9UNQ0); test: Effect of ABCG2 transporter on drug; assay type: cell-based
T2 sequence (Q9UNQ0 1-655): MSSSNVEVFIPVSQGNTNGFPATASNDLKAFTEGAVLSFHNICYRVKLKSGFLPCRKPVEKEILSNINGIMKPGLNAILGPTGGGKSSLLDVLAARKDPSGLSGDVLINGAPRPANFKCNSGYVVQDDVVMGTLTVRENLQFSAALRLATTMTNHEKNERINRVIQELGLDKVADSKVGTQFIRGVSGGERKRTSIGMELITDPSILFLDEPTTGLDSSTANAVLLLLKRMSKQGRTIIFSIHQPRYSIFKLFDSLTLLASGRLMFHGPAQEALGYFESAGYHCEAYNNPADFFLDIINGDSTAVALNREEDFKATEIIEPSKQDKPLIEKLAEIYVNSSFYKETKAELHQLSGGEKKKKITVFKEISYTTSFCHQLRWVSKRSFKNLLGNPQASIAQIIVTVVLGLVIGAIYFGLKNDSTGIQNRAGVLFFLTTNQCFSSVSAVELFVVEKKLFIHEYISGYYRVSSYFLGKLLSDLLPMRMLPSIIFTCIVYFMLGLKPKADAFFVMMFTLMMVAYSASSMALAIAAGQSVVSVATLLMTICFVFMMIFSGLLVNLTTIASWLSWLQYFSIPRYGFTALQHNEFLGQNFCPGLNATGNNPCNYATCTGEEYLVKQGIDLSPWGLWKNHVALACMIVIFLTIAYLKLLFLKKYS

[3] = tested on: survivin, cIAP2, Mcl-1, XIAP; test: Western blotting of anti-apoptotic protein expression; conditions: HCT-8 and FaDu cell lines; FIG. 17
[4] = tested on: FaDu cell line not expressing ABCG2; test: In vitro cell viability test, FaDu; conditions: FIG. 28, 3 days
DNA topoisomerase-1 = molecular target: T3, DNA topoisomerase-1 (Homo sapiens, UniProt P11387); conditions: cited from earlier work
T3 sequence (P11387 1-765): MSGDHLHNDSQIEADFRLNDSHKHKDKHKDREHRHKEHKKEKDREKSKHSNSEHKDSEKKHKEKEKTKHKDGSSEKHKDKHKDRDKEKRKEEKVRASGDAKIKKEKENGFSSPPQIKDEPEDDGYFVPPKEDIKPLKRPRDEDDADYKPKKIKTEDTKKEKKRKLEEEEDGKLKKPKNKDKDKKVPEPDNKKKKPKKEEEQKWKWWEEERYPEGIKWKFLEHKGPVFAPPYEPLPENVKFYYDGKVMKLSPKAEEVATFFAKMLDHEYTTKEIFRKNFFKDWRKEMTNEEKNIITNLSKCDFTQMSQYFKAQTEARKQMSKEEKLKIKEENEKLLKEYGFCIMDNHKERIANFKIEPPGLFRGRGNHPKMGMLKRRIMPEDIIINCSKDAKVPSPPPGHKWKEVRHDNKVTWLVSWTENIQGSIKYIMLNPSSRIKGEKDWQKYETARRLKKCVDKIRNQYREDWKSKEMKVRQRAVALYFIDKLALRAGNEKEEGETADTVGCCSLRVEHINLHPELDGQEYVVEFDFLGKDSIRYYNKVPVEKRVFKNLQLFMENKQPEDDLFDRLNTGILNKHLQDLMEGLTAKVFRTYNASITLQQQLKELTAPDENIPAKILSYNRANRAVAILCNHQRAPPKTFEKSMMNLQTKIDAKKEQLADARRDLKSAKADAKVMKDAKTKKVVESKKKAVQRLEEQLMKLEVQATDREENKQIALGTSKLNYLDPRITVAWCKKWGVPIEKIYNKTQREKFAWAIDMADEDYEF

cancer cells [5] = conditions: cited from earlier work
[6] = human, in vivo; cited from earlier work

Q: Which DDX5 degradation (DDX5) does the source give for CC[C@@]1(O)C(=O)OCc2c1cc1n(c2=O)Cc2cc3cc4c(cc3nc2-1)OCO4 [FL118] here?
A: The DDX5 degradation was “superior to other substances”.

Q: And the IC50 (cancer cells [1])?
A: The IC50 was less than 100 nM.

Q: And the safety (GLP-toxicity tests)?
A: Its safety is “excellent safety”.

Q: What about the “efficacy compared to SN-38” value [2] of the same compound?
A: Its value is “superior efficiency compared to SN-38; also recorded: strong tumor regression efficacy compared to SN-38”.

Q: And the “effect of ABCG2 transporter” value (ABCG2 transporter)?
A: Its value is “not affected by the ABCG2 transporter”.

Q: And the “downregulating a tumor protein compared to SN-38” value [3]?
A: The value was “better effect in downregulating a tumor protein”.

Q: With CC[C@@]1(O)C(=O)OCc2c1cc1n(c2=O)Cc2c-1nc1cc3c(c4c1c2[C@@H](NC(=O)[C@@H](O)C1CC1)CC4)OCO3 [PBX-7024] as the compound, how does the apoptotic efficacy [4] read?
A: The apoptotic efficacy was “potent apoptotic efficacy”.

Q: Which DDX5 degradation (DDX5) does the source give for CC[C@@]1(O)C(=O)OCc2c1cc1n(c2=O)Cc2c-1nc1cc3c(c4c1c2[C@@H](NC(=O)[C@@H](C)O)CC4)OCO3 [PBX-7016] here?
A: Its DDX5 degradation is “degrading DDX5; also recorded: inhibits DDX5 in a concentration-dependent manner; also recorded: works better than PBX-7014”.

Q: And the DDX5 degradation (DDX5; listed as 7016)?
A: The DDX5 degradation was “followed by 7011, 7016, and 7014 in this order”.

Q: Which DDX5 degradation (DDX5) does the source give for CC[C@@]1(O)C(=O)OCc2c1cc1n(c2=O)Cc2c-1nc1cc3c(c4c1c2[C@@H](NC(=O)CO)CC4)OCO3 [PBX-7014] here?
A: The DDX5 degradation was “degrading DDX5”.

Q: And the DDX5 degradation (DDX5; listed as 7014)?
A: Its DDX5 degradation is “followed by 7011, 7016, and 7014 in this order”.

Q: Which results are given for CC[C@@]1(O)C(=O)OCc2c1cc1n(c2=O)Cc2c-1nc1cc(F)c(C)c3c1c2[C@@H](NC(=O)CO)CC3 [Dxd]?
A: DDX5 degradation (DDX5): exhibits a MoA that degrades the DDX5 protein; IC50 (DNA topoisomerase-1): 310 nM; cytotoxicity / activity in cancer cells relative to SN-38 (cancer cells [5]): about 10 times

Q: What does the source list for CC[C@@]1(O)C(=O)OCc2c1cc1n(c2=O)Cc2c-1nc1cc(F)c(C)c3c1c2[C@@H](N)CC3 [exatecan]?
A: DDX5 degradation (DDX5): exhibits a MoA that degrades the DDX5 protein; downregulating a tumor protein compared to SN-38 [3]: better effect in downregulating a tumor protein

Q: With Trodelvy as the compound, how does the “diarrhea of all grades” value [6] read?
A: The value was 65%.

Q: What about the “febrile neutropenia, patients” value [6] of the same compound?
A: Its value is 7%.

Q: What about the “neutropenia grade 3 or higher” value [6] of the same compound?
A: The value was 47%.

Q: What about the “neutropenia of all grades” value [6] of the same compound?
A: Its value is 61%.

Q: What about the “neutropenic colitis, patients” value [6] of the same compound?
A: Its value is 0.5%.

Q: Which results are given for CC[C@@]1(O)C(=O)OCc2c1cc1n(c2=O)Cc2c-1nc1cc3c(c4c1c2[C@@H](N)CC4)OCO3 (single isomer, unassigned) [PBX-7011]?
A: DDX5 degradation (DDX5): degrading DDX5; DDX5 degradation (DDX5; listed as 7011): followed by 7011, 7016, and 7014 in this order
